According to PMC5634933 (Biochemistry, 2017):
Read-outs that look alike come from different tables or passages of the source.

Columns and labels:
Assay type in all cases: biochemical
I260M pol β = I260M pol β (Homo sapiens, UniProt P06746, I260M); conditions: for Kd / kpol: 37 °C
WT pol β [1] = biological target: WT pol β (Homo sapiens, UniProt P06746); conditions: WT; for Kd / kpol: 37 °C
WT pol β [2] = conditions: D kpol WT analogue/D kpol I260M analogue
[3] = I260M, A-T: correct incorporation of dTTP (analogue) opposite template A
[4] = A-T: correct incorporation of dTTP (analogue) opposite template A
[5] = I260M, A-G: misincorporation of dGTP (analogue) opposite template A
[6] = A-G: misincorporation of dGTP (analogue) opposite template A

In the case of `Cc1cn([C@H]2C[C@H](O)[C@@H](COP(=O)(O)OP(=O)(O)OP(=O)(O)O)O2)c(=O)[nH]c1=O` [A-T O, dTTP, reference compound], the “Efficiency (kpol/Kd)” value (I260M pol β; [3]) is reported as 200000 ± 80000 M⁻¹ s⁻¹, the Kd (I260M pol β; [3]) is reported as 40.1 ± 15.5 µM and the kpol (I260M pol β; [3]) is reported as 7.90 ± 1.30 s⁻¹. The kpol (I260M pol β; I260M, A-T: correct incorporation of dTTP (analogue) opposite template A, listed as dTTP) was 7.9 s⁻¹, the “Kd of I260M relative to WT (fold higher)” value (I260M pol β; correct parent dTTP) was 4 fold and the “Efficiency (kpol/Kd)” value (WT pol β [1]; [4]) was 1.22e+06 ± 140000 M⁻¹ s⁻¹. The Kd (WT pol β [1]; [4]) was 10.5 ± 1.1 µM, the kpol (WT pol β [1]; [4]) was 12.8 ± 0.60 s⁻¹ and the kpol (WT pol β [1]; A-T: correct incorporation of dTTP (analogue) opposite template A, listed as dTTP) was 12.8 s⁻¹.

With `Nc1nc2c(ncn2[C@H]2C[C@H](O)[C@@H](COP(=O)(O)OP(=O)(O)OP(=O)(O)O)O2)c(=O)[nH]1` [A-G O, dGTP, reference compound] the “Efficiency (kpol/Kd)” value (I260M pol β; [5]) was 18 ± 9.1 M⁻¹ s⁻¹, the Kd (I260M pol β; [5]) was 795 ± 373 µM and the kpol (I260M pol β; [5]) was 0.014 ± 0.003 s⁻¹. For the same compound, the “Efficiency (kpol/Kd)” value (WT pol β [1]; [6]) was 22 ± 8.5 M⁻¹ s⁻¹, the Kd (WT pol β [1]; [6]) was 626 ± 220 µM and the kpol (WT pol β [1]; [6]) was 0.014 ± 0.002 s⁻¹.

For `Cc1cn([C@H]2C[C@H](O)[C@@H](COP(=O)(O)OP(=O)(O)CP(=O)(O)O)O2)c(=O)[nH]c1=O` [A-T CH2, β,γ-CH2 dTTP], the “Efficiency (kpol/Kd)” value (I260M pol β; [3]) was 60000 ± 20000 M⁻¹ s⁻¹, the Kd (I260M pol β; [3]) was 5 ± 1.5 µM and the kpol (I260M pol β; [3]) was 0.30 ± 0.01 s⁻¹. For the same compound, the “Efficiency (kpol/Kd)” value (WT pol β [1]; [4]) was 120000 ± 30000 M⁻¹ s⁻¹, the Kd (WT pol β [1]; [4]) was 6.7 ± 1.8 µM and the kpol (WT pol β [1]; [4]) was 0.80 ± 0.10 s⁻¹.

With CHCl the “D kpol (analogue/parent)” value (I260M pol β; I260M, D kpol analogue/D kpol parent) was 1.0, the “F (analogue/parent)” value (I260M pol β; I260M, F analogue/F parent) was 0.6 and the “F analogue (fidelity)” value (I260M pol β; I260M, dTTP (correct) vs dGTP (incorrect) analogue opposite template A) was 7060. The “D kpol(c/i) analogue” value (I260M pol β; I260M, discrimination at kpol = kpol(correct)/kpol (incorrect)) was 551.7, the I260M/WT analogue (I260M pol β; [F I260M(analogue)]/[F WT (analogue)]) was 0.3 and the “I260M/WT (analogue/parent)” value (I260M pol β; [F I260M(analogue/parent)]/[F WT (analogue/parent)]) was 1.3. For the same compound, the “D kpol analogue WT/I260M” value (WT pol β [2]) was 1.5, the “D kpol (analogue/parent)” value (WT pol β [1]; D kpol analogue/D kpol parent) was 0.9 and the “F (analogue/parent)” value (WT pol β [1]; F analogue/F parent) was 0.5. For the same compound, the “F analogue (fidelity)” value (WT pol β [1]; dTTP (correct) vs dGTP (incorrect) analogue opposite template A) was 27818 and the “D kpol(c/i) analogue” value (WT pol β [1]; discrimination at kpol = kpol(correct)/kpol (incorrect)) was 842.9.
